Test system: 596521-263-R-J1-PDC complex spheroids, viability % of control
Assay: Anticancer human tumor 596521-263-R-J1-PDC patient-derived soft tissue sarcoma cell line growth inhibition [GQUAD]
Settings: for IC50: curve of first compound; for viability, T/C: stronger effect = lower value
How it was run: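 Tumor cells were grown as complex spheroids with HUVEC endothelial cells and mesenchymal stem cells as stroma. G-quadruplex stabilizers were combined with targeted agents over half-log dilutions from near the clinical Cmax, or from 10 microM.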

[1] = second compound 0.0316 µM, first compound 0.0316 µM
[2] = second compound 0.0316 µM, first compound 0.1 µM
[3] = second compound 0.0316 µM, first compound 0.316 µM
[4] = second compound 0.0316 µM, first compound 1 µM
[5] = second compound 0.0316 µM, first compound 3.16 µM
[6] = second compound 0.0316 µM, first compound 10 µM
[7] = second compound 0.1 µM, first compound 0.0316 µM
[8] = second compound 0.1 µM, first compound 0.1 µM
[9] = second compound 0.1 µM, first compound 0.316 µM
[10] = second compound 0.1 µM, first compound 1 µM
[11] = second compound 0.1 µM, first compound 3.16 µM
[12] = second compound 0.1 µM, first compound 10 µM
[13] = second compound 0.316 µM, first compound 0.0316 µM
[14] = second compound 0.316 µM, first compound 0.1 µM
[15] = second compound 0.316 µM, first compound 0.316 µM
[16] = second compound 0.316 µM, first compound 1 µM
[17] = second compound 0.316 µM, first compound 3.16 µM
[18] = second compound 0.316 µM, first compound 10 µM
[19] = second compound 1 µM, first compound 0.0316 µM
[20] = second compound 1 µM, first compound 0.1 µM
[21] = second compound 1 µM, first compound 0.316 µM
[22] = second compound 1 µM, first compound 1 µM
[23] = second compound 1 µM, first compound 3.16 µM
[24] = second compound 1 µM, first compound 10 µM
[25] = second compound 3.16 µM, first compound 0.0316 µM
[26] = second compound 3.16 µM, first compound 0.1 µM
[27] = second compound 3.16 µM, first compound 0.316 µM
[28] = second compound 3.16 µM, first compound 1 µM
[29] = second compound 3.16 µM, first compound 3.16 µM
[30] = second compound 3.16 µM, first compound 10 µM
[31] = second compound 10 µM, first compound 0.0316 µM
[32] = second compound 10 µM, first compound 0.1 µM
[33] = second compound 10 µM, first compound 0.316 µM
[34] = second compound 10 µM, first compound 1 µM
[35] = second compound 10 µM, first compound 3.16 µM
[36] = second compound 10 µM, first compound 10 µM
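Note: spheroids exposed to drugs for 7 days before viability reading.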
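Throughout, for viability, T/C: 100% = DMSO vehicle control viability.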

## Nc1ccn(C2OC(CO)C(O)C2(F)F)c(=O)n1 (stereo unspecified) + Cc1[nH]c2ccc(F)cc2c1-c1nc2c3cccnc3c3ncccc3c2[nH]1
Second compound 0.0316 µM
  IC50: 0.0347 µM
Second compound 0.1 µM
  IC50: 0.0581 µM
Second compound 0.316 µM
  IC50: < 0.0316 µM
Second compound 1 µM
  IC50: < 0.0316 µM
Second compound 3.16 µM
  IC50: 0.125 µM
Second compound 10 µM
  IC50: < 0.0316 µM
[1]
  viability, T/C: 54.6%
[2]
  viability, T/C: 45.5%
[3]
  viability, T/C: 38.1%
[4]
  viability, T/C: 38.7%
[5]
  viability, T/C: 42.6%
[6]
  viability, T/C: 32.9%
[7]
  viability, T/C: 57%
[8]
  viability, T/C: 47.2%
[9]
  viability, T/C: 38%
[10]
  viability, T/C: 47.2%
[11]
  viability, T/C: 39.2%
[12]
  viability, T/C: 41.5%
[13]
  viability, T/C: 57%
[14]
  viability, T/C: 39%
[15]
  viability, T/C: 36.4%
[16]
  viability, T/C: 44.2%
[17]
  viability, T/C: 45.4%
[18]
  viability, T/C: 41.1%
[19]
  viability, T/C: 53.3%
[20]
  viability, T/C: 38.3%
[21]
  viability, T/C: 43.6%
[22]
  viability, T/C: 39.3%
[23]
  viability, T/C: 40.8%
[24]
  viability, T/C: 37.9%
[25]
  viability, T/C: 60.7%
[26]
  viability, T/C: 49.2%
[27]
  viability, T/C: 43%
[28]
  viability, T/C: 42%
[29]
  viability, T/C: 42.7%
[30]
  viability, T/C: 30.7%
[31]
  viability, T/C: 56.7%
[32]
  viability, T/C: 37.3%
[33]
  viability, T/C: 38.8%
[34]
  viability, T/C: 32.7%
[35]
  viability, T/C: 38.2%
[36]
  viability, T/C: 36.3%

## CCCS(=O)(=O)Nc1ccc(F)c(C(=O)c2c[nH]c3ncc(-c4ccc(Cl)cc4)cc23)c1F + Cc1cnc(CNC(=O)c2c(=O)c3ccc(N4CCCN(C)CC4)nc3n3c2sc2ccccc23)cn1
Second compound 0.0316 µM
  IC50: 8.29 µM
Second compound 0.1 µM
  IC50: 7.34 µM
Second compound 0.316 µM
  IC50: 6.68 µM
Second compound 1 µM
  IC50: 5.02 µM
Second compound 3.16 µM
  IC50: 4.25 µM
Second compound 10 µM
  IC50: < 0.0316 µM
[1]
  viability, T/C: 100%
[2]
  viability, T/C: 90.1%
[3]
  viability, T/C: 98.1%
[4]
  viability, T/C: 97.5%
[5]
  viability, T/C: 78.5%
[6]
  viability, T/C: 44.4%
[7]
  viability, T/C: 90.6%
[8]
  viability, T/C: 85.5%
[9]
  viability, T/C: 95.7%
[10]
  viability, T/C: 79.4%
[11]
  viability, T/C: 83.6%
[12]
  viability, T/C: 37.5%
[13]
  viability, T/C: 81.2%
[14]
  viability, T/C: 84.6%
[15]
  viability, T/C: 80.1%
[16]
  viability, T/C: 71.7%
[17]
  viability, T/C: 71.3%
[18]
  viability, T/C: 39.5%
[19]
  viability, T/C: 64.2%
[20]
  viability, T/C: 65.8%
[21]
  viability, T/C: 67%
[22]
  viability, T/C: 61.5%
[23]
  viability, T/C: 53.3%
[24]
  viability, T/C: 43.1%
[25]
  viability, T/C: 57%
[26]
  viability, T/C: 50.3%
[27]
  viability, T/C: 62.8%
[28]
  viability, T/C: 52%
[29]
  viability, T/C: 55.2%
[30]
  viability, T/C: 35.8%
[31]
  viability, T/C: 46.5%
[32]
  viability, T/C: 27.8%
[33]
  viability, T/C: 50.4%
[34]
  viability, T/C: 46.1%
[35]
  viability, T/C: 24.7%
[36]
  viability, T/C: 0.21%

## COc1ncnc(C2CC2)c1-c1ncc2cnn(Cc3ccc(-c4nc(C(F)(F)F)cn4C(C)C)cc3)c2n1 + Cc1cnc(CNC(=O)c2c(=O)c3ccc(N4CCCN(C)CC4)nc3n3c2sc2ccccc23)cn1
Second compound 0.0316 µM
  IC50: > 10 µM
Second compound 0.1 µM
  IC50: > 10 µM
Second compound 0.316 µM
  IC50: > 10 µM
Second compound 1 µM
  IC50: > 10 µM
Second compound 3.16 µM
  IC50: > 10 µM
Second compound 10 µM
  IC50: < 0.0316 µM
[1]
  viability, T/C: 90.2%
[2]
  viability, T/C: 90.6%
[3]
  viability, T/C: 78%
[4]
  viability, T/C: 90.4%
[5]
  viability, T/C: 86.9%
[6]
  viability, T/C: 79%
[7]
  viability, T/C: 84.4%
[8]
  viability, T/C: 77.2%
[9]
  viability, T/C: 74.7%
[10]
  viability, T/C: 77.1%
[11]
  viability, T/C: 85%
[12]
  viability, T/C: 79.2%
[13]
  viability, T/C: 72%
[14]
  viability, T/C: 74.2%
[15]
  viability, T/C: 67.9%
[16]
  viability, T/C: 79.5%
[17]
  viability, T/C: 70.2%
[18]
  viability, T/C: 65.7%
[19]
  viability, T/C: 62.8%
[20]
  viability, T/C: 65%
[21]
  viability, T/C: 65.1%
[22]
  viability, T/C: 63.1%
[23]
  viability, T/C: 64%
[24]
  viability, T/C: 61.9%
[25]
  viability, T/C: 53.1%
[26]
  viability, T/C: 59.2%
[27]
  viability, T/C: 51.6%
[28]
  viability, T/C: 48.6%
[29]
  viability, T/C: 59.8%
[30]
  viability, T/C: 49.9%
[31]
  viability, T/C: 44.6%
[32]
  viability, T/C: 25.6%
[33]
  viability, T/C: 41.5%
[34]
  viability, T/C: 42.6%
[35]
  viability, T/C: 40.7%
[36]
  viability, T/C: 0.28%
